Assay results: US11214803B2, “Modulators of YAP1 expression” (Ionis Pharmaceuticals, Inc., priority 2019, dated 2022)
Strand notation (5' to 3'): a small letter for the sugar, then the base; units joined by * are phosphorothioate-linked, units joined directly phosphodiester-linked; [ ] holds rarer units or linkages, { } end groups; capitals alone tell only the bases. e = 2'-O-(2-methoxyethyl) (MOE); k = constrained ethyl (cEt); [5mC] = 5-methylcytosine; d = 2'-deoxy (DNA); m = 2'-O-methyl

Tested on: Yap1 mRNA
Assay: Antisense inhibition of human Yap1 in SNU-449 cells by modified oligonucleotides, single dose (Example 5, RTS36584)
Format: cell-based
Procedure, shortened: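 Plate SNU-449 cells at 10,000 per well; add 2,000 nM modified oligonucleotide without transfection reagent; after ~48 h isolate RNA, run qRT-PCR with RTS36584, normalise to RIBOGREEN and report % UTC.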

[1] = Table 42 (separate experiment), SNU-449 cells, 10,000 cells per well, free uptake, 2,000 nM modified oligonucleotide, approximately 48 hours, RTS36584, normalized to RIBOGREEN, Yap1 mRNA relative to untreated control cells
[2] = Table 49, Yap1 mRNA level relative to untreated control, modified oligonucleotides targeting SEQ ID NO.: 1 and 2
[3] = Table 45, Yap1 mRNA as percent of untreated control, SNU-449 cells, single dose
[4] = Table 44 experiment, SNU-449 cells, 10,000 cells per well, free uptake, 2,000 nM, approximately 48 hours, RTS36584, Yap1 mRNA normalized to RIBOGREEN, relative to untreated control cells
[5] = Yap1 mRNA, percent of untreated control, modified oligonucleotides targeting SEQ ID NO: 1 and 2, Table 47
[6] = Table 46, Yap1 mRNA as percent of untreated control, SNU-449 cells, single dose
[7] = Table 40 (separate experiment), SNU-449 cells, 10,000 cells per well, free uptake, 2,000 nM oligonucleotide, approx. 48 hours, RTS36584, normalized to RIBOGREEN, Yap1 mRNA relative to untreated control

1198703 (k[5mC]*kT*dT*dT*dA*dA*dA*dG*dT*dG*dT*dA*kT*eG*kT*e[5mC]; antisense) [Compound 1198703]
YAP1 (% UTC) [1]: 42 % UTC

1198359 (k[5mC]*kT*kT*dT*dA*dA*dA*dG*dT*dG*dT*dA*kT*eG*kT*e[5mC]; antisense) [Compound 1198359]
YAP1 (% UT) [2]: 28 % UT

1198252 (k[5mC]*kT*d[5mC]*dT*dT*dA*dT*dA*dT*dG*dG*eT*eT*eT*kT*kG; antisense) [Compound 1198252]
YAP1 (% UTC) (Table 43 experiment, SNU-449 cells, 10,000 cells per well, free uptake, 2,000 nM, approximately 48 hours, RTS36584, Yap1 mRNA normalized to RIBOGREEN, relative to untreated control cells): 26 % UTC

1198928 (kG*kT*dG*d[5mC]*dT*dT*dT*dG*dG*dA*dA*kG*dA*kT*d[5mC]*kT; antisense) [Compound 1198928]
YAP1 (% UTC) [3]: 28 % UTC

1198637 (kA*kG*dT*dA*dT*dG*dT*dG*dG*d[5mC]*dA*dA*kT*eA*kA*eT; antisense) [Compound 1198637]
YAP1 (% UTC) (Table 41, SNU-449 cells, 10,000 cells per well, free uptake, 2,000 nM modified oligonucleotide, approximately 48 hours, RTS36584, normalized to RIBOGREEN, Yap1 mRNA relative to untreated control cells): 64 % UTC

1198524 (kT*kG*dT*dA*dT*dG*dT*d[5mC]*dA*dG*dA*eA*kG*eA*kG*eT; antisense) [Compound 1198524]
YAP1 (% UTC) [4]: 3 % UTC

1200864 (kA*kA*k[5mC]*dT*dT*mU*dA*dA*dA*dG*dT*dG*dT*kA*kT*kG; antisense) [Compound 1200864]
YAP1 (% UT) (Table 52, Yap1 mRNA, modified oligonucleotides targeting SEQ ID NO: 1 and 2): 84 % UT

1198926 (kG*k[5mC]*dT*dT*dT*dG*dG*dA*dA*dG*dA*kT*d[5mC]*kT*dG*kA; antisense) [Compound 1198926]
YAP1 (% UTC) [3]: 45 % UTC

1198708 (kT*kA*dA*dG*dT*dA*dA*dG*dG*dT*dT*dT*k[5mC]*e[5mC]*k[5mC]*eA; antisense) [Compound 1198708]
YAP1 (% UTC) [1]: 34 % UTC

1009328 (kT*kA*kT*dA*dT*dT*dA*dG*dA*dG*dT*dA*dT*kG*kT*kG; antisense) [Compound 1009328]
YAP1 (% UT) [5]: 67 % UT

1198815 (antisense kT*kA*dG*dA*dG*dT*dA*dT*dG*dT*dG*kG*e[5mC]*kA*eA*kT) [Compound 1198815]
YAP1 (% UT) [6]: 24 % UT

1198339 (kA*k[5mC]*kT*d[5mC]*dT*dT*dA*dT*dA*dT*dG*dG*kT*eT*kT*eT; antisense) [Compound 1198339]
YAP1 (% UT) [2]: 25 % UT

1197317 (kA*kG*kA*d[5mC]*mU*dA*dA*dG*dT*dA*dA*dG*dG*kT*kT*kT; antisense) [Compound 1197317]
YAP1 (% UT) (Table 51, Yap1 mRNA remaining as percent of untreated control (UT), SNU-449 cells, single dose): 78 % UT

1095622 (antisense k[5mC]*kT*dG*dA*dG*dG*dT*dA*dT*dA*dA*e[5mC]*kT*eG*kG*eG) [Compound 1095622]
YAP1 (% UTC) [4]: 44 % UTC

1095621 (antisense kT*kG*dA*dG*dG*dT*dA*dT*dA*dA*d[5mC]*eT*kG*eG*kG*e[5mC]) [Compound 1095621]
YAP1 (% UTC) [4]: 22 % UTC

1198355 (kA*kA*kA*dG*dT*dG*dT*dA*dT*dG*dT*d[5mC]*kA*eG*kA*eA; antisense) [Compound 1198355]
YAP1 (% UT) [2]: 6 % UT

1198753 (k[5mC]*eT*kT*dT*dG*dG*dA*dA*dG*dA*dT*d[5mC]*eT*eG*kA*kA; antisense) [Compound 1198753]
YAP1 (% UTC) [7]: 58 % UTC

1198829 (k[5mC]*kT*dT*dT*dT*dA*d[5mC]*dA*dT*dT*dA*kG*eG*kA*eA*k[5mC]; antisense) [Compound 1198829]
YAP1 (% UT) [6]: 36 % UT

1198877 (kT*kT*dA*dA*dA*dG*dT*dG*dT*dA*dT*kG*eT*k[5mC]*eA*kG; antisense) [Compound 1198877]
YAP1 (% UT) [5]: 11 % UT

1095481 (antisense kT*kG*dA*dG*dG*dT*dA*dT*dA*dA*d[5mC]*dT*kG*eG*kG*e[5mC]) [Compound 1095481]
YAP1 (% UTC) [1]: 21 % UTC

1198759 (kA*eG*kG*dA*dT*dG*d[5mC]*dA*dT*dG*dG*dT*eT*eT*kT*kT; antisense) [Compound 1198759]
YAP1 (% UTC) [7]: 27 % UTC

1198903 (kA*kT*dT*dA*dG*dA*dG*dT*dA*dT*dG*kT*dG*kG*d[5mC]*kA; antisense) [Compound 1198903]
YAP1 (% UTC) [4]: 24 % UTC

1095453 (antisense kT*kG*kA*dG*dG*dT*dA*dT*dA*dA*d[5mC]*dT*kG*kG*kG*e[5mC]) [Compound 1095453]
YAP1 (% UT) (Table 50, Yap1 mRNA remaining as percent of untreated control (UT), SNU-449 cells, single dose): 32 % UT
